Our source for the IC50 values is patent publication US20200317642A1, “AMINE-SUBSTITUTED HETEROCYCLIC COMPOUNDS AS EHMT2 INHIBITORS AND DERIVATIVES THEREOF” (Epizyme, Inc., priority 2017, published 2020).

One may read the IC50 as the point on the concentration scale where inhibition reaches its midpoint.

Structures are written as SMILES. Where two headings read alike, the source gives them in different places.

The subject of test [1] is H3K9me2 in MDA-MB-231 cells. Put plainly: MDA-MB-231 H3K9me2 in-cell western assay (EHMT2 ICW). The test is classed as cell-based. The following applies: Homo sapiens. An excerpt:
MDA-MB-231 cell line was purchased from ATCC (Manassas, Va., USA). RPMI/Glutamax medium, Penicillin-Streptomycin, Heat Inactivated Fetal Bovine Serum, and D-PBS were purchased from Life Technologies (Grand Island, N.Y., USA). Odyssey blocking buffer, 800 CW goat anti-mouse IgG (H+L) antibody, and Licor Odyssey Infrared Scanner were purchased from Licor Biosciences, Lincoln, Nebr., USA. H3K9me2 mouse monoclonal antibody (Cat #1220) was purchased from Abcam (Cambridge, Mass., USA). 16% Paraformaldehyde was purchased from Electron Microscopy Sciences, Hatfield, Pa., USA). MDA-MB-231 cells were maintained in complete growth medium (RPMI supplemented with 10% v/v heat inactivated fetal bovine serum) and cultured at 37° C. under 5% C02. UNC0638 was purchased from Sigma-Aldrich (St. Louis, Mo., USA).
General Procedure for MDA-MB-231 HEK9me2 in-Cell Western Assay.
Compound (100 nL) was added directly to 384-well cell plate. MDA-MB-231 cells (ATCC) were seeded in assay medium (RPMI/Glutamax supplemented with 10% v/v heat inactivated fetal bovine serum and 1% Penicillin/Streptomycin, Life Technologies) at a concentration of 3,000 cells per well to a Poly-D-Lysine coated 384-well cell culture plate with 50 μL per well. Plates were incubated at 37° C., 5% CO2 for 48 hours (BD Biosciences 356697). […] After the incubation, 50 μL per well of 8% paraformaldehyde (Electron Microscopy Sciences) in PBS was added to the plates and incubated at room temperature for 20 minutes. Plates were transferred to a Biotek 406 plate washer and washed 2 times with 100 μL per well of wash buffer (1×PBS containing 0.3% Triton X-100 (v/v)). Next, 60 μL per well of Odyssey blocking buffer (Licor Biosciences) was added to each plate and incubated for 1 hour at room temperature. Blocking buffer was removed and 20 μL of monoclonal primary antibody α-H3K9me2 (Abcam) diluted 1:800 in Odyssey buffer with 0.1% Tween 20 (v/v) were added and plates were incubated overnight (16 hours) at 4° C. Plates were washed 5 times with 100 μL per well of wash buffer. Next 20 μL per well of secondary antibody was added (1:500 800 CW donkey anti-mouse IgG (H+L) antibody (Licor Biosciences), 1:1000 DRAQ5 (Cell Signaling Technology) in Odyssey buffer with 0.1% Tween 20 (v/v)) and incubated for 1 hour at room temperature. The plates were washed 5 times with 100 μL per well wash buffer then 2 times with 100 μL per well of water. Plates were allowed to dry at room temperature then imaged on a Licor Odyssey Infrared Scanner (Licor Biosciences) which measured integrated intensity at 700 nm and 800 nm wavelengths. Both 700 and 800 channels were scanned.
First, the ratio for each well was determined by:
Each plate included fourteen control wells of DMSO only treatment (Minimum Inhibition) as well as fourteen control wells (background wells) for maximum inhibition treated with control compound UNC0638 (Background wells).
The average of the ratio values for each well was calculated and used to determine the percent inhibition for each test well in the plate. Control compound was serially diluted three-fold in DMSO for a total of 10 test concentrations beginning at 1 μM. Percent inhibition was calculated as: […]
IC50 curves were generated using triplicate wells per concentration of compound. The IC50 is the concentration of compound at which measured methylation is inhibited by 50% as interpolated from the dose response curves. IC50 values were calculated using a non-linear regression (variable slope-four parameter fit model) with by the following formula:
where Top is fixed at 100% and Bottom is fixed to 0%, [I]=concentration of inhibitor, IC50=half maximal inhibitory concentration and n=Hill Slope.

The target of the next test is T1, EHMT1 (Homo sapiens, UniProt Q9H9B1).
T1 sequence (Q9H9B1 1-1298): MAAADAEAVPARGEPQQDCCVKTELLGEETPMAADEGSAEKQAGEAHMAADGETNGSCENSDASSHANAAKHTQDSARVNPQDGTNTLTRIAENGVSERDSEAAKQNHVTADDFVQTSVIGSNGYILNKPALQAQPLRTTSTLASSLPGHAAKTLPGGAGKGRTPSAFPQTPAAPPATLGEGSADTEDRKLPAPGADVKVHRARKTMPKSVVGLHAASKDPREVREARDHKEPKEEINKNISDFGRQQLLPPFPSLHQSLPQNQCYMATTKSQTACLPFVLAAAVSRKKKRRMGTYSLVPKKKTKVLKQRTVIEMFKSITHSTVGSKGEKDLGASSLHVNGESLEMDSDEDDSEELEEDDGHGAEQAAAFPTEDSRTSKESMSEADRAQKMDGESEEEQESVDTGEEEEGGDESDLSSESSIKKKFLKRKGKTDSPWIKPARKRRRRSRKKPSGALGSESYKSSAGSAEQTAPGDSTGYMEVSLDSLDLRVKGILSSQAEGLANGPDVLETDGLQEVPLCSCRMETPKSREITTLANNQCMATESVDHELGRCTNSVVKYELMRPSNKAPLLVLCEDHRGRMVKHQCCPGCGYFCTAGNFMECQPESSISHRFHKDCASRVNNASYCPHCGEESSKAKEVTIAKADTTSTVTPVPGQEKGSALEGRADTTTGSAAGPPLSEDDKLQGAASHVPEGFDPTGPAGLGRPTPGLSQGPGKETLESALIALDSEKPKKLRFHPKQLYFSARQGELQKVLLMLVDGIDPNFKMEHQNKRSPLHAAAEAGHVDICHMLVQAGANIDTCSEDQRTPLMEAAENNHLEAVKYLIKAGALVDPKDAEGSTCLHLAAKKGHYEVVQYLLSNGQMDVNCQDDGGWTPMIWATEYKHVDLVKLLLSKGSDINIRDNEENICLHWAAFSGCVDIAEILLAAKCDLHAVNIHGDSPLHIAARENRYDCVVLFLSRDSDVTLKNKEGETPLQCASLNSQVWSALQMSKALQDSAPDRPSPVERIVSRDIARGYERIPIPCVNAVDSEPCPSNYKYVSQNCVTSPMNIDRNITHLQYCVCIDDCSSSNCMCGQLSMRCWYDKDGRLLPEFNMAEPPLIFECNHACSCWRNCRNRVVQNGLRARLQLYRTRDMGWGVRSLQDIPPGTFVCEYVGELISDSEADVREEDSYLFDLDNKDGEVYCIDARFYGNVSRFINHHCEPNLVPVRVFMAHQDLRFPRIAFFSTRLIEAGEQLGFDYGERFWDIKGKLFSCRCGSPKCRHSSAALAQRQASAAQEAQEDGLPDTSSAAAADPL
Put plainly: EHMT1 PEP enzyme assay. The test is classed as biochemical.

Setting [2] is: Table 3, read-out: EHMT2 ICW (IC50 μM).
[3] abbreviates: Table 3, read-out: EHMT1 PEP (IC50 μM).
Where [4] appears, read: Table 3A, read-out: ICW (IC50 μM).
Setting [5] is: Table 3A, read-out: EHMT1 (IC50 μM).

Take `CNc1cc(C)nc(Nc2ccc(OC)c(CN[C@@H](C)CN3CCCC3)c2)n1` [Compound 47]: the IC50 in test [1] (setting [2]) was 1 to 10 µM; at EHMT1 (setting [3]) it was 0.1 to 1 µM.
On the same counts, the results for `CNc1cc(C)nc(Nc2ccc(OC)c(CN[C@H](C)CN3CCCC3)c2)n1` [Compound 48] are 1 to 10 µM and 0.1 to 1 µM.
On the same counts, the results for `CNc1cc(C)nc(Nc2ccc(OC)c(C#CCNCCN(C)C)c2)n1` [Compound 49] are 1 to 10 µM and 0.1 to 1 µM.
For `CNCc1cn(-c2cc(Nc3nc(C)cc(NC)n3)ccc2Cl)nn1` [Compound A1], the IC50 is 0.01 to 0.1 µM in test [1] (setting [4]) and < 0.01 µM on EHMT1 (setting [5]).
On the same counts, the results for `CNC1=Nc2cc(-n3cc([C@H]4CCCN4)nn3)c(Cl)cc2C12CCC2` [Compound A2R, (R)-5′-chloro-N-methyl-6′-(4-(pyrrolidin-2-yl)-1H-1,2,3-triazol-1-yl)spiro[cyclobutane-1,3′-indol]-2′-amine] are 0.01 to 0.1 µM and < 0.01 µM.
With `CNC1=Nc2cc(-n3cc([C@@H]4CCCN4)nn3)c(Cl)cc2C12CCC2` [Compound A2S, (S)-5′-chloro-N-methyl-6′-(4-(pyrrolidin-2-yl)-1H-1,2,3-triazol-1-yl)spiro[cyclobutane-1,3′-indol]-2′-amine], the 50% inhibitory concentration (IC50) is > 1 µM in test [1] (setting [4]) and 0.01 to 0.1 µM on EHMT1 (setting [5]).
On the same counts, the results for `CNC1=Nc2cc(-n3cc(C4CCCN4)nn3)c(Cl)cc2C12CCC2` (centres unmarked) [Compound A2] are 0.1 to 1 µM and < 0.01 µM.
Taken in the same sequence, the figures for `CNCc1cn(-c2c(OC)ccc(Nc3nc(C)cc(NC)n3)c2F)nn1` [Compound A3, N2-(2-fluoro-4-methoxy-3-[4-[(methylamino)methyl]-1H-1,2,3-triazol-1-yl]phenyl)-N4,6-dimethylpyrimidine-2,4-diamine] were 0.01 to 0.1 µM and < 0.01 µM.
With `CNc1cc(C)nc(Nc2ccc(OC)c(-n3cc([C@H]4CCCN4)nn3)c2F)n1` [Compound A4R], the half-inhibitory concentration (IC50) in test [1] (setting [4]) was 0.01 to 0.1 µM; at EHMT1 (setting [5]) it was < 0.01 µM.
`CNc1cc(C)nc(Nc2ccc(OC)c(-n3cc([C@@H]4CCCN4)nn3)c2F)n1` [Compound A4S]: the concentration for half-maximal inhibition (IC50) in test [1] (setting [4]) is 0.1 to 1 µM; on EHMT1 (setting [5]), 0.01 to 0.1 µM.
Taken in the same sequence, the figures for `CNc1cc(C)nc(Nc2ccc(OC)c(-n3cc(C4CCCN4)nn3)c2F)n1` (centres unmarked) [Compound A4] were 0.01 to 0.1 µM and < 0.01 µM.
For `CNc1cc(C)nc(Nc2ccc(OC)c(-n3cc(CNC(C)C)cn3)c2F)n1` [Compound A5], the half-maximal inhibitory concentration (IC50) was > 1 µM in test [1] (setting [4]) and 0.1 to 1 µM at EHMT1 (setting [5]).
Regarding `CNc1cc(C)nc(Nc2ccc(Cl)c(-n3cc(CN)cn3)c2Cl)n1` [Compound A6], the values for the IC50 (in test [1] (setting [4]); at EHMT1 (setting [5])) were 0.01 to 0.1 µM and < 0.01 µM, respectively.
Taken in the same sequence, the figures for `CCNCc1cnn(-c2c(OC)ccc(Nc3nc(C)cc(NC)n3)c2F)c1` [Compound A7] were 0.1 to 1 µM and 0.01 to 0.1 µM.
Taken in the same sequence, the figures for `CNCc1cnn(-c2c(OC)ccc(Nc3nc(NC)cc(C(C)C)n3)c2F)c1` [Compound A8, N^2-(2-fluoro-4-methoxy-3-[4-[(methylamino)methyl]-1H-pyrazol-1-yl]phenyl)-N^4-methyl-6-(propan-2-yl)pyrimidine-2,4-diamine] were 0.01 to 0.1 µM and < 0.01 µM.
Taken in the same sequence, the figures for `CNc1cc(C)nc(Nc2ccc(OC)c(-n3ncc4c3CCNC4)c2F)n1` [Compound A9, N2-(2-fluoro-4-methoxy-3-(4,5,6,7-tetrahydro-1H-pyrazolo[4,3-c]142yridine-1-yl)phenyl)-N4,6-dimethylpyrimidine-2,4-diamine] were 0.1 to 1 µM and 0.1 to 1 µM.
Regarding `CNC1=Nc2cc(-c3cc4n(n3)CCNC4)c(Cl)cc2C12CCC2` [Compound A10, 5′-chloro-N-methyl-6′-(4,5,6,7-tetrahydropyrazolo[1,5-a]pyrazin-2-yl)spiro[cyclobutane-1,3′-indol]-2′-amine], the concentration for half-maximal inhibition (IC50) in test [1] (setting [4]) was > 1 µM; on EHMT1 (setting [5]) it was 0.01 to 0.1 µM.
On the same counts, the results for `CNCc1cn(-c2cc3c(cc2Cl)C2(CCC2)C(NC)=N3)nn1` [Compound A11, 5′-chloro-N-methyl-6′-(4-((methylamino)methyl)-1H-1,2,3-triazol-1-yl)spiro[cyclobutane-1,3′-indol]-2′-amine] are 0.1 to 1 µM and < 0.01 µM.
For the compound `CNC1=Nc2cc(-c3cc4n(n3)CCN(C)C4)c(Cl)cc2C12CCC2` [Compound A12, 5′-chloro-N-methyl-6′-(5-methyl-4,5,6,7-tetrahydropyrazolo[1,5-a]145yrazine-2-yl)spiro[cyclobutane-1,3′-indol]-2′-amine], the results for the half-inhibitory concentration (IC50) (in test [1] (setting [4]); on EHMT1 (setting [5])) were > 1 µM and 0.1 to 1 µM, respectively.
Regarding `CNCc1cn(-c2c(Cl)ccc(Nc3nc(C)cc(NC)n3)c2Cl)nn1` [Compound A13, N2-(2,4-dichloro-3-(4-((methylamino)methyl)-1H-1,2,3-triazol-1-yl)phenyl)-N4,6-dimethylpyrimidine-2,4-diamine], the IC50 is 0.01 to 0.1 µM in test [1] (setting [4]) and < 0.01 µM at EHMT1 (setting [5]).
Taken in the same sequence, the figures for `CNCc1cc(-c2c(OC)ccc(Nc3nc(C)cc(NC)n3)c2F)no1` [Compound A14, N2-(2-fluoro-4-methoxy-3-[5-[(methylamino)methyl]-1,2-oxazol-3-yl]phenyl)-N4,6-dimethylpyrimidine-2,4-diamine] were 0.1 to 1 µM and < 0.01 µM.
Taken in the same sequence, the figures for `CNCc1cn(-c2cc3c(cc2Cl)C2(CCC2)C(N)=N3)nn1` [Compound A15, 5′-chloro-6′-(4-((methylamino)methyl)-1H-1,2,3-triazol-1-yl)spiro[cyclobutane-1,3′-indol]-2′-amine] were 0.1 to 1 µM and 0.01 to 0.1 µM.
